One block for each compound: values may come before it.
Key:
Aurora-A [1] = target: T1, Aurora-A (Homo sapiens, UniProt O14965); assay: in vitro kinase binding, Aurora-A
T1 sequence (O14965 1-403): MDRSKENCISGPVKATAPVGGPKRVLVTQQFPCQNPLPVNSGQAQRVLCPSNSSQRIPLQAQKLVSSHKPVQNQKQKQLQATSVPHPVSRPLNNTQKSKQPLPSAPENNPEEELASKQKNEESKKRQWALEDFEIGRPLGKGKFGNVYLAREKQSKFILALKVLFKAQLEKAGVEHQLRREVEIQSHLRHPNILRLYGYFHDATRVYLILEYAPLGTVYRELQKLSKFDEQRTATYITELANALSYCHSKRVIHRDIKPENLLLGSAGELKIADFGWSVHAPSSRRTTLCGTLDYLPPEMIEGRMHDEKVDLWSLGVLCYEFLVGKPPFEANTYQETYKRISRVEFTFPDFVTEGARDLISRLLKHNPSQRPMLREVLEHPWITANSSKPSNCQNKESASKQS

MCF-7 cells = assay: Alamar blue cellular viability assay, MCF-7; assay type: cell-based
Protocol: (§1) MCF-7 cells were cultured in complete Dulbecco's modified Eagle medium (DMEM) supplemented with 10% (vol/vol) heat-inactivated fetal bovine serum (FBS), 100 U/ml penicillin and 100 μg/ml streptomycin. HCC38 cells were cultured in RPMI medium with 10% FBS, 100 U/ml penicillin and 100 μg/ml streptomycin. Huh7 cells were cultured in DMEM medium with 10% FBS, 100 U/ml penicillin and 100 μg/ml streptomycin supplemented with 1% MEM non-essential amino acids (SIGMA M7145). IMR-32 and SK-N-BE(2) cells were cultured in Eagle's Minimum Essential Medium (EMEM) with 10% FBS, 100 U/ml penicillin and 100 μg/ml streptomycin. All the cell lines were maintained in a humidified incubator at 37° C. and 5% CO2.
(§2) Cancer cells were seeded in media (50 μL) 24 h prior to treatment with compounds in 96-well plates. For MCF-7 and Huh7 cells, the seeding density is 2,500 cells/well; for HCC38, the density is 2,000 cells/well; and for IMR-32 and SK-N-BE(s), the density is 5,000 cells/well. Compounds were serially diluted in pre-warmed media and dosed to cells (final volume=100 μL; final DMSO concentration=0.5%). […] After 2 hours treatment period, the fluorescence of each well was read using a BioTek Synergy H1 plate reader. […]

CDK4-CyclinD1 = CDK4-CyclinD1 (Homo sapiens, UniProt P11802); assay: in vitro kinase binding, CDK4-CyclinD1
Sequence of CDK4-CyclinD1 (P11802 whole entry): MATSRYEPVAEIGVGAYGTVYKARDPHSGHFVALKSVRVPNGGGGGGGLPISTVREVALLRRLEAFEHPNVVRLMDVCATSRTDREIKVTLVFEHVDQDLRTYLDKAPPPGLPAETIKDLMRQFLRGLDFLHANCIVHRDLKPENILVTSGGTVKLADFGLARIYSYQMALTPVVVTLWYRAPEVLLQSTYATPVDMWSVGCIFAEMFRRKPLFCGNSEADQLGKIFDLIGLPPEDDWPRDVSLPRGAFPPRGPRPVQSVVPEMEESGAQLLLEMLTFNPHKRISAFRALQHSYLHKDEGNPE
Sequence of CDK4-CyclinD1 (P24385 whole entry partner): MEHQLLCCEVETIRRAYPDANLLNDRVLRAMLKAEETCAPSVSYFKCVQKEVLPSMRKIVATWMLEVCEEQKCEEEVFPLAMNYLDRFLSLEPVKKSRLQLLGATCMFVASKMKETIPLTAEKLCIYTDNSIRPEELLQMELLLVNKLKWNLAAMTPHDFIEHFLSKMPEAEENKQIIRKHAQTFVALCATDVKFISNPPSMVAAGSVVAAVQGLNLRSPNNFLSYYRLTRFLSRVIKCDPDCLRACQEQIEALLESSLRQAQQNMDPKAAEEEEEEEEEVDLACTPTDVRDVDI

CDK4 = target: T2, CDK4 (Homo sapiens, UniProt P11802); assay: immunoblotting, degradation of CDK4 in MCF-7 cells; assay type: cell-based
T2 construct: endogenous in cells; host or cells: MCF-7
T2 sequence (P11802 whole entry): as the sequence (P11802 whole entry) above
Protocol: as §1
(§3) Cells were treated with 13 and other compounds at indicated concentrations and incubation time. Cells were gently rinsed once with ice-cold PBS and then lysed in radioimmnuoprecipitation assay (RIPA) lysis buffer (50 mM Tris-HCl pH 7.4, 150 mM NaCl, 1% NP-40, 0.5% sodium deoxycholate, 0.1% SDS, 5 mM EDTA, 1 mM EGTA) supplemented with 1% protease inhibitor cocktail (Roche cOmplete) and 1% phosphatase inhibitor cocktail (PhosSTOP). Cell lysates were incubated on ice for 15 mins and then kept at −80° C. before further use. The lysates were thawed on ice and the supernatants were collected after centrifugation (@11,000 rpm) for 15 min at 4° C. The protein concentration was determined using the Pierce BCA protein Assay kit and normalized before the samples were reduced in […] sample buffer and denatured at 95° C. in a heated block for 10 mins. An equal amount of protein samples (10-30 μg per lane) were resolved using 4-20% Tris-glycine gels and transferred onto PVDF blotting membranes. Primary antibodies CDK4 (DCS-35, 1:2000), N-Myc (B8.4.B, 1:5000), p21 (F-5, 1:500), p53 (DO-1, 1:1000), Aurora-A (1G4, 1:1000), β-actin (A1978, 1:2000) were used for immunoblotting. The images were detected using Li-Cor Odyssey Fc imaging system and the immunoblots were quantified by densitometry using ImageJ software.

cyclin D1 = assay: immunoblotting, degradation of cyclin D1 in MCF-7 cells; assay type: cell-based
Protocol: as §1
(§4) Cells were treated with 13 and other compounds at indicated concentrations and incubation time. […] The protein concentration was determined using the Pierce BCA protein Assay kit and normalized before the samples were reduced in […] sample buffer and denatured at 95° C. in a heated block for 10 mins. […] The images were detected using Li-Cor Odyssey Fc imaging system and the immunoblots were quantified by densitometry using ImageJ software.

Aurora-A [2] = target: T1, Aurora-A; assay: immunoblotting, degradation of Aurora-A in MCF-7 cells; assay type: cell-based; design: endogenous in cells; host or cells: MCF-7
Protocol: as §1, §3

[3] = test system: MCF-7 breast cancer cells; assay: cell cycle analysis using propidium iodide DNA staining; assay type: cell-based; settings: compound treatment for 48 hours
p53 and p21 = assay: immunoblotting, abundance of downstream signaling proteins in MCF-7 cells; assay type: cell-based; settings: 4 hours and 24 hours
Protocol: as §1, §4

N-Myc = assay: immunoblotting, N-Myc depletion in MYCN amplified neuroblastoma cell lines; assay type: cell-based; settings: IMR-32 and SK-N-BE(2) cells, 0.5 μM, after 24 hours
Protocol: as §1, §4

Aurora-A and N-Myc = target: T3, Aurora-A and N-Myc (Homo sapiens, UniProt O14965); assay: immunoblotting, dose-dependent degradation of Aurora-A and N-Myc in SK-N-BE(2) cells; assay type: cell-based; settings: for degradation of Aurora-A and N-Myc (in words): 24 hours, dose series
T3 construct: endogenous in cells; host or cells: SK-N-BE(2)
T3 sequence (O14965 1-403): T1 sequence (O14965 1-403)
Protocol: as §1, §3

[4] = test system: MCF-7, HCC38, Huh7, IMR-32 and SK-N-BE(2) cells; assay: Alamar blue cellular viability assay, all tested cell lines; assay type: cell-based; settings: range over all tested cell lines; read-out: IC50, cytotoxicity
Protocol: as §1, §2

[5] = test system: IMR-32 and SK-N-BE(2) cells; assay: Alamar blue cellular viability assay, MYCN amplified neuroblastoma cells; assay type: cell-based; settings: 3 days
Protocol: as §1, §2

HCC38 = assay: Alamar blue cellular viability assay, HCC38; assay type: cell-based; settings: HCC38, ribociclib-resistant, 5 days
Protocol: as §1, §2

Huh7 = assay: Alamar blue cellular viability assay, Huh7; assay type: cell-based; settings: Huh7, ribociclib-resistant, 5 days
Protocol: as §1, §2

[6] = test system: Cyclin D and CDK4 complexes; assay: Western blot, degradation of Cyclin D and CDK4 complexes in MCF-7 cells; assay type: cell-based; settings: MCF-7 breast cancer cells

Compound: Cc1nc2c(F)cc(-c3nc(Nc4ccc(NC(=O)CCCCCCOc5cccc6c5C(=O)N(C5CCC(=O)NC5=O)C6=O)cc4)ncc3F)cc2n1C(C)C (stereo not drawn) [Compound 18, 7-((2-(2,6-dioxopiperidin-3-yl)-1,3-dioxoisoindolin-4-yl)oxy)-N-(4-((5-fluoro-4-(4-fluoro-1-isopropyl-2-methyl-1H-benzo[d]imidazol-6-yl)pyrimidin-2-yl)amino)phenyl)heptanamide]
cytotoxicity in MCF-7 cells (in words) (MCF-7 cells; palbociclib- and abemaciclib-analogue-based degraders): the most potent compound

Compound: CNC(=O)c1ccc(Nc2ncc3cc(C(=O)N(C)C)n(C4CCCC4)c3n2)nc1 [Compound 12, 7-cyclopentyl-N,N-dimethyl-2-((5-(methylcarbamoyl)pyridin-2-yl)amino)-7H-pyrrolo[2,3-d]pyrimidine-6-carboxamide]
binding affinity with Aurora-A (in words) (Aurora-A [1]): significant decrease of binding affinity with Aurora-A

Compound: CN(C)C(=O)c1cc2cnc(Nc3ccc(N4CCNCC4)cn3)nc2n1C1CCCC1 [ribociclib, reference compound]
cell cycle effect [3]: induces G0/G1 arrest

Compound: CN(C)C(=O)c1cc2cnc(Nc3ccc(C(=O)NCCCCCCOc4cccc5c4C(=O)N(C4CCC(=O)N(C)C4=O)C5=O)cc3)nc2n1C1CCCC1 (stereo not drawn) [Compound 15, 7-cyclopentyl-N,N-dimethyl-2-((4-((6-((2-(1-methyl-2,6-dioxopiperidin-3-yl)-1,3-dioxoisoindolin-4-yl)oxy)hexyl)carbamoyl)phenyl)amino)-7H-pyrrolo[2,3-d]pyrimidine-6-carboxamide]
binding affinity with Aurora-A (in words) (Aurora-A [1]): maintains similar binding profile as the active form 13 | degradation of Aurora-A and N-Myc (in words) (Aurora-A and N-Myc): did not affect the protein abundance even at the highest test concentration | potency shift from 13 (cytotoxicity) (MCF-7 cells; MCF-7 cells, 5 days): 4,4 fold | potency shift from 13 (cytotoxicity) (HCC38): 8.2 fold | potency shift from 13 (cytotoxicity) (Huh7): 20.8 fold

Compound: CN(C)C(=O)c1cc2cnc(Nc3ccc(C(=O)NCCCCCCNc4cccc5c4C(=O)N(C4CCC(=O)NC4=O)C5=O)cc3)nc2n1C1CCCC1 (stereo not drawn) [Compound 22, 7-cyclopentyl-2-((4-((6-((2-(2,6-dioxopiperidin-3-yl)-1,3-dioxoisoindolin-4-yl)amino)hexyl)carbamoyl)-phenyl)amino)-N,N-dimethyl-7H-pyrrolo[2,3-d]pyrimidine-6-carboxamide]
degradation of Cyclin D and CDK4 complexes [6]: degrades Cyclin D and CDK4 complexes in a dose-dependent and time-dependent manner

More lines, main results first:

Kd (Aurora-A [1]): 380 nM
Compound: CN(C)C(=O)c1cc2cnc(Nc3ccc(C(=O)NCCCCCCOc4cccc5c4C(=O)N(C4CCC(=O)NC4=O)C5=O)cn3)nc2n1C1CCCC1 (stereo not drawn) [Compound 14, 7-cyclopentyl-2-((5-((6-((2-(2,6-dioxopiperidin-3-yl)-1,3-dioxoisoindolin-4-yl)oxy)hexyl)carbamo-yl)pyridin-2-yl)amino)-N,N-dimethyl-7H-pyrrolo[2,3-d]pyrimidine-6-carboxamide]

binding affinity with Aurora-A (in words) (Aurora-A [1]): weak binding affinity | Kd (CDK4-CyclinD1): 23 nM | degradation of CDK4 (in words) (CDK4): strong potency | degradation of Aurora-A (in words) (Aurora-A [2]): strong potency
Compound: Cc1nc2c(F)cc(-c3nc(Nc4ccc(C(=O)NCCCCCCOc5cccc6c5C(=O)N(C5CCC(=O)NC5=O)C6=O)cc4)ncc3F)cc2n1C(C)C (stereo not drawn) [Compound 17, N-(6-((2-(2,6-dioxopiperidin-3-yl)-1,3-dioxoisoindolin-4-yl)oxy)hexyl)-4-((5-fluoro-4-(4-fluoro-1-isopropyl-2-methyl-1H-benzo[d]imidazol-6-yl)pyrimidin-2-yl)amino)benzamide]
degradation of cyclin D1 (in words) (cyclin D1): strong potency

potency for depleting N-Myc protein compared to MLN8237 and CD532 (Aurora-A and N-Myc): more potent | half-life of Aurora-A (Aurora-A [2]; 100 nM compound): 1.9 h | degradation potency for Aurora-A at high concentration (hook effect) (Aurora-A [2]; 2 μM): lower degradation potency | DC50 (Aurora-A [2]; 4 hours, read-out: DC50 (half-maximal degradation concentration) for Aurora-A): 20 nM | Dmax (Aurora-A [2]; MCF7, after 4 hours, read-out: Dmax (maximum degradation efficacy) for Aurora-A): ~94%
Compound: CN(C)C(=O)c1cc2cnc(Nc3ccc(C(=O)NCCCCCCOc4cccc5c4C(=O)N(C4CCC(=O)NC4=O)C5=O)cc3)nc2n1C1CCCC1 (stereo not drawn) [Compound 13, 7-cyclopentyl-2-((4-((6-((2-(2,6-dioxopiperidin-3-yl)-1,3-dioxoisoindolin-4-yl)oxy)hexyl)carbamoyl)phenyl)amino)-N,N-dimethyl-7H-pyrrolo[2,3-d]pyrimidine-6-carboxamide]
binding affinity with Aurora-A (in words) (Aurora-A [1]): maintains its binding affinity to Aurora-A | degradation of CDK4 (in words) (CDK4): no obvious degradation of CDK4 was observed | cell cycle effect [3]: potent G2/M phase arrest | effect on p21 abundance (p53 and p21): increased the abundance | effect on p53 (p53 and p21): significantly stabilized p53 | depletion of N-Myc (N-Myc): almost complete depletion of N-Myc | degradation of Aurora-A and N-Myc (in words) (Aurora-A and N-Myc): induced the degradation of Aurora-A and N-Myc in a dose-dependent manner | IC50 [4]: 18 to 135 nM | cytotoxic potency compared to CD532 [5]: more potent than CD532 | degradation of Aurora-A (in words) (Aurora-A [2]): rapidly and potently induce the degradation of Aurora-A

Kd (Aurora-A [1]): 0.85 nM | Kd (CDK4-CyclinD1): 3 nM
Compound: CNC(=O)c1ccc(Nc2ncc3cc(C(=O)N(C)C)n(C4CCCC4)c3n2)cc1 [Compound 11, 7-cyclopentyl-N,N-dimethyl-2-((4-(methylcarbamoyl)phenyl)amino)-7H-pyrrolo[2,3-d]pyrimidine-6-carboxamide]

binding affinity with Aurora-A (in words) (Aurora-A [1]): weak binding | binding to CDK4 (in words) (CDK4-CyclinD1): weak binding | degradation of CDK4 (in words) (CDK4): weakly active | degradation of Aurora-A (in words) (Aurora-A [2]): weakly active
Compound: CC(=O)c1c(C)c2cnc(Nc3ccc(C(=O)NCCCCCCOc4cccc5c4C(=O)N(C4CCC(=O)NC4=O)C5=O)cc3)nc2n(C2CCCC2)c1=O (stereo not drawn) [Compound 16, 4-((6-acetyl-8-cyclopentyl-5-methyl-7-oxo-7,8-dihydropyrido[2,3-d]pyrimidin-2-yl)amino)-N-(6-((2-(2,6-dioxopiperidin-3-yl)-1,3-dioxoisoindolin-4-yl)oxy)hexyl)benzamide]
